“And” between values parts separate entries of the source, which are not always exact repeats. Identical values can stand only once.
How the values were obtained:
[1] = background art; cited from earlier work
[2] = Evaluation of sweetness level: choosing the sugar-added sample of equivalent sweetness intensity, trained panelists; assay type: in vivo, human; conditions: for sweetness compared with sugar (in words): in vivo; for Sweetness level, Average / Sweetness level, Highest / Sweetness level, Lowest: 48 mg in 400 mL pure water vs sugar samples of Brix 3.0 to 5.0, relative to sugar
Procedure: In order to evaluate the sweetness levels of Novel steviol glycosides A and B, samples were prepared by adding sugar to pure water to give Brix of 3.0 to 5.0 in 0.5 increments. Compounds 15 and 17 obtained by the chemical syntheses were used as Novel steviol glycosides A and B, respectively, where 48 mg of each sample was dissolved in 400 mL of pure water to be tested. In addition, samples were also prepared for comparison by dissolving 48 mg of each of Reb.A, Reb.D and Reb.M in 400 mL of pure water.

[3] = Sensory evaluation of taste quality of beverage samples (sweetness on-set, lingering sweet aftertaste, bitterness, lingering bitter aftertaste); assay type: in vivo, human; conditions: beverage samples in pure water adjusted to Brix 5 in terms of sugar, compared with Reb.A, Reb.D, Reb.M and sugar
Description: (§1) In order to evaluate the taste quality of various steviol glycosides, Reb.A, Reb.D, Reb.M, sugar and Novel steviol glycoside A (Compound 15) were each added to pure water to prepare beverage samples. All of the beverage samples were adjusted to have final sweetness level (Brix) of 5 in terms of sugar (sucrose), and thus the sweetness levels of Reb.A, Reb.D, Reb.M and Novel steviol glycoside A (Compound 15) were 312, 317, 341 and 354, respectively.
(§2) The resulting beverage samples were subjected to sensory evaluation for rating the attributes, which were sweetness on-set, lingering sweet aftertaste, bitterness and lingering bitter aftertaste. Panelists who had been trained about sensory attributes of sweeteners (7 members) evaluated based on the following evaluation criteria. For each evaluation item, the steviol glycosides were scored in 0.5 increments provided that the score of sugar was 3. A higher score represents faster sweetness on-set, shorter lingering sweet aftertaste, less bitterness and shorter lingering bitter aftertaste. The evaluation scores shown in the diagram are the average scores of the scores from the 8 panelists.
as §1, with “glycoside B” for “glycoside A”, “(Compound 17)” for “(Compound 15)”, “were 288, 310, 324” for “were 312, 317, 341”, “and 250,” for “and 354,”
as §2, with “shorter lingering aftertaste. The” for “shorter lingering bitter aftertaste. The”, “from the 6 panelists.” for “from the 8 panelists.”

[4] = evaluation of Novel steviol glycoside A (Table 10), 7 panelists
[5] = evaluation of Novel steviol glycoside B (Table 11)

SMILES | sweetness, times the sweetness of sugar [1] | sweetness compared with sugar (in words) [2] | bitterness [3] | Sweetness level, Average [2, 4] | Sweetness level, Highest [2, 4] | Sweetness level, Lowest [2, 4] | Sweetness level, Average [2, 5] | Sweetness level, Highest [2, 5] | Sweetness level, Lowest [2, 5] | also measured
C=C1C[C@@]23CC[C@H]4[C@@](C)(CCC[C@@]4(C)C(=O)O[C@@H]4O[C@H](CO)[C@@H](O)[C@H](O)[C@H]4O)[C@@H]2CC[C@]1(O[C@@H]1O[C@H](CO)[C@@H](O)[C@H](O)[C@H]1O[C@@H]1O[C@H](CO)[C@@H](O)[C@H](O)[C@H]1O)C3 [Stevioside] | 250-300 times |  |  |  |  |  |  |  |  | 
C=C1CC23CCC4C(C)(C(=O)OC5OC(CO)C(O)C(OC6OC(CO)C(O)C(O)C6O)C5OC5OC(CO)C(O)C(O)C5O)CCCC4(C)C2CCC1(OC1OC(CO)C(O)C(OC2OC(CO)C(O)C(O)C2O)C1OC1OCC(O)C(O)C1O)C3 (stereo not drawn) [Novel steviol glycoside B] |  | sweeter than sugar | weaker bitterness than other steviol glycosides |  |  |  |  |  |  | 
C=C1C[C@@]23CC[C@H]4[C@@](C)(CCC[C@@]4(C)C(=O)O[C@@H]4O[C@H](CO)[C@@H](O)[C@H](O[C@@H]5O[C@H](CO)[C@@H](O)[C@H](O)[C@H]5O)[C@H]4O[C@@H]4O[C@H](CO)[C@@H](O)[C@H](O)[C@H]4O)[C@@H]2CC[C@]1(O[C@@H]1O[C@H](CO)[C@@H](O)[C@H](O[C@@H]2O[C@H](CO)[C@@H](O)[C@H](O)[C@H]2O)[C@H]1O[C@@H]1O[C@H](CO)[C@@H](O)[C@H](O)[C@H]1O)C3 [RebM, rebaudioside M] |  |  |  | 341.1 | 352.2 | 286.0 | 323.6 | 373.4 | 236.5 | Sweetness level, Average ([2]; evaluation of Novel steviol glycoside A (Table 10), 7 panelists, listed as Reb.M): 341; Sweetness level, Average ([2]; evaluation of Novel steviol glycoside B (Table 11), listed as Reb.M): 324
C=C1C[C@@]23CC[C@H]4[C@@](C)(CCC[C@@]4(C)C(=O)O[C@@H]4O[C@H](CO)[C@@H](O)[C@H](O)[C@H]4O[C@@H]4O[C@H](CO)[C@@H](O)[C@H](O)[C@H]4O)[C@@H]2CC[C@]1(O[C@@H]1O[C@H](CO)[C@@H](O)[C@H](O[C@@H]2O[C@H](CO)[C@@H](O)[C@H](O)[C@H]2O)[C@H]1O[C@@H]1O[C@H](CO)[C@@H](O)[C@H](O)[C@H]1O)C3 [RebD, rebaudioside D] |  |  |  | 317.9 | 398.0 | 253.5 | 310.3 | 393.6 | 241.1 | Sweetness level, Average ([2]; evaluation of Novel steviol glycoside A (Table 10), 7 panelists, listed as Reb.D): 317; Sweetness level, Average ([2]; evaluation of Novel steviol glycoside B (Table 11), listed as Reb.D): 310
C=C1CC23CCC4C(C)(C(=O)OC5OC(CO)C(O)C(O)C5OC5OCC(O)C(O)C5O)CCCC4(C)C2CCC1(OC1OC(CO)C(O)C(OC2OC(CO)C(O)C(O)C2O)C1OC1OC(CO)C(O)C(O)C1O)C3 (stereo not drawn) [Novel steviol glycoside A] |  | sweeter than sugar | less bitterness as compared to other components including sugar | 354 and 354.1 | 415.8 | 319.0 |  |  |  | sweetness level higher in average than that of sugar ([2]; average of panelists, 48 mg in 400 mL pure water): about 354 times; lingering bitter aftertaste [3]: shorter lingering bitter aftertaste as compared to other glycosides; lingering sweet aftertaste [3]: less sweetness; bitterness ([3]; listed as Glycoside A): weaker bitterness than other components including sugar; lingering bitter aftertaste ([3]; listed as Glycoside A): less lingering sweet and bitter aftertastes; lingering sweet aftertaste ([3]; listed as Glycoside A): less lingering sweet and bitter aftertastes
C=C1C[C@@]23CC[C@H]4[C@@](C)(CCC[C@@]4(C)C(=O)O[C@@H]4O[C@H](CO)[C@@H](O)[C@H](O)[C@H]4O)[C@@H]2CC[C@]1(O[C@@H]1O[C@H](CO)[C@@H](O)[C@H](O[C@@H]2O[C@H](CO)[C@@H](O)[C@H](O)[C@H]2O)[C@H]1O[C@@H]1O[C@H](CO)[C@@H](O)[C@H](O)[C@H]1O)C3 [Reb A, rebaudioside A] | 350-450 times |  |  | 312.0 | 398.9 | 243.0 | 288.3 | 329.2 | 239.5 | Sweetness level, Average ([2]; evaluation of Novel steviol glycoside A (Table 10), 7 panelists, listed as Reb.A): 312; Sweetness level, Average ([2]; evaluation of Novel steviol glycoside B (Table 11), listed as Reb.A): 288
